Experimental data reported in paper PMC5986872, “Schaftoside Interacts With NlCDK1 Protein: A Mechanism of Rice Resistance to Brown Planthopper, Nilaparvata lugens” (Frontiers in Plant Science, 2018).

Target: T1, NlCDK1 (Nilaparvata lugens, UniProt A0A1W5R2Z8)
T1 construct: CDS cloned BamHI/HindIII in pET32a
Experiment: intrinsic fluorescence quenching titration, double-log plot
Format: binding
Settings: PBS; pH 7.4; 0.24 × 10^-6 mol/L protein; excitation 281 nm, emission 335 nm

T1 sequence (A0A1W5R2Z8 1-302): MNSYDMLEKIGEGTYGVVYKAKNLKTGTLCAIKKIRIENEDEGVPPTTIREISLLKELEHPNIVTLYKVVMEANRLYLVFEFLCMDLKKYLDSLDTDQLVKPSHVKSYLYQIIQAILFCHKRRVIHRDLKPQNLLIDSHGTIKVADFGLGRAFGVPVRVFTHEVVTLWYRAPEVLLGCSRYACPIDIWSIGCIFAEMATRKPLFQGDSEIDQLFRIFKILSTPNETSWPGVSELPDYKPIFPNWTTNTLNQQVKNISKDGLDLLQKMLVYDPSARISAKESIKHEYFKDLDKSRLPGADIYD

O=c1cc(-c2ccc(O)cc2)oc2c([C@@H]3OC[C@H](O)[C@H](O)[C@H]3O)c(O)c([C@@H]3O[C@H](CO)[C@@H](O)[C@H](O)[C@H]3O)c(O)c12 [schaftoside, 6-C-beta-D-Glucosyl-8-C-alpha-L-arabinosylapigenin]
KA (apparent association constant): 6.436 × 10^3
